Holding throughout (assay): NCI anticancer screen, dose series, 48 h
The subject of experiment [1] is EKVX.
The test system of experiment [2] is M14.
In experiment [3] the test system is OVCAR-8.
Experiment [4] deals with HOP-92.
The test system of experiment [5] is MOLT-4.
For experiment [6], the system named is OVCAR-3.
The test system of experiment [7] is UACC-62.
Experiment [8] has as its system A498.
Experiment [9] deals with SF-295.
In experiment [10] the test system is UACC-257.
In experiment [11] the test system is T47D.
Experiment [12] has as its system MDA-MB-435.
In experiment [13] the test system is MDA-MB-231.
The test system of experiment [14] is HL-60.
Experiment [15] relates to KM12.
Experiment [16] concerns SK-OV-3.
For experiment [17], the system named is SK-MEL-5.
Experiment [18] deals with OVCAR-4.
Experiment [19] concerns HOP-62.

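Method: 48-hour compound exposure of cells in 96-well plates, five concentrations, linear interpolation of endpoints. GI50: concentration for 50% inhibition of growth.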 Calls of active or inactive are those of the source. Rule as the data show it: active = GI50 up to about 1.1 µM and inactive = higher.

Consider `COc1cc2c(c(OC)c1OC)C(=O)[C@@H]1[C@H]2N1C(=O)NCCCl`, for which the GI50 is 53 µM (inactive) in experiment [1]; 50.4 µM (inactive) in experiment [2]; 79.4 µM (inactive) in experiment [3]; > 100 µM (inactive) in experiment [4]; 50.7 µM (inactive) in experiment [5]; 38.4 µM (inactive) in experiment [6]. The GI50 was 61.4 µM (inactive) in [7]; 70.1 µM (inactive) in experiment [8]; > 100 µM (inactive) in experiment [9]; 79.8 µM (inactive) in experiment [10]; 48.3 µM (inactive) in experiment [11]; 32.6 µM (inactive) in [12]. Further, the GI50 was > 100 µM (inactive) in experiment [13]; 29.2 µM (inactive) in experiment [14]; 53.3 µM (inactive) in experiment [15]; > 100 µM (inactive) in experiment [16]; 46.8 µM (inactive) in experiment [17]; 52.4 µM (inactive) in experiment [18]. The GI50 in experiment [19] was > 100 µM (inactive).
Consider `O=C1C(c2c(O)[nH]c3ccc(S(=O)(=O)O)cc23)=Nc2ccccc21`, for which the GI50 in experiment [1], in experiment [2], in experiment [3], in experiment [4], in [5] and in experiment [6] was > 100 µM (inactive) throughout. Moreover, the GI50 was > 100 µM (inactive) in [7]; > 100 µM (inactive) in experiment [8]; > 100 µM (inactive) in experiment [9]; > 100 µM (inactive) in experiment [10]; 72.1 µM (inactive) in [11]; > 100 µM (inactive) in experiment [12]. For the same compound, the GI50 in experiment [13] was > 100 µM (inactive); in experiment [14] it was > 100 µM (inactive); in experiment [15], > 100 µM (inactive); in experiment [16] it was > 100 µM (inactive); in experiment [17], > 100 µM (inactive); in experiment [18], 94.4 µM (inactive). For the same compound, the GI50 in experiment [19] is > 100 µM (inactive).
Regarding `CCOC(=O)c1c(N2CCOCC2)[nH]c(=O)c(C(c2c(O)c(C(=O)OCC)c(N3CCOCC3)[nH]c2=O)C(C)C)c1O`, the GI50 in [1] is > 100 µM (inactive); in experiment [2], > 100 µM (inactive); in experiment [3], > 100 µM (inactive); in experiment [4], 80.5 µM (inactive); in [5], > 100 µM (inactive); in experiment [6], > 100 µM (inactive). For the same compound, the GI50 was > 100 µM (inactive) in experiment [7]; > 100 µM (inactive) in experiment [8]; 58.3 µM (inactive) in experiment [9]; > 100 µM (inactive) in [10]; > 100 µM (inactive) in experiment [11]; > 100 µM (inactive) in [12]. The GI50 in experiment [13] is > 100 µM (inactive); in [14], > 100 µM (inactive); in experiment [15] it was > 100 µM (inactive); in experiment [16], 86.5 µM (inactive); in [17], > 100 µM (inactive); in experiment [18], > 100 µM (inactive). In addition, the GI50 in experiment [19] is 60.4 µM (inactive).
On to `COc1ccc(C(c2ccc3c(c2)OCO3)N2C(=O)CCC2C(=O)O)cc1` (stereo not drawn), for which the GI50 in [1], in experiment [2], in experiment [3], in [4], in [5] and in experiment [6] was > 100 µM (inactive) throughout. Besides, the GI50 in [7], in [8], in experiment [9], in experiment [10], in experiment [11] and in experiment [12] was > 100 µM (inactive) each time. In addition, the GI50 in experiment [13], in experiment [14], in experiment [15], in experiment [16], in [17] and in [18] was > 100 µM (inactive) throughout. Further, the GI50 in [19] was > 100 µM (inactive).
For `CCCCCCCCCCCCc1ccc(S(=O)(=O)O)cc1`, the GI50 was > 100 µM (inactive) in experiment [1]; > 100 µM (inactive) in experiment [2]; > 100 µM (inactive) in [3]; 88.1 µM (inactive) in [4]; > 100 µM (inactive) in [5]; > 100 µM (inactive) in [6]. In addition, the GI50 was 34.4 µM (inactive) in [7]; 26.8 µM (inactive) in experiment [8]; > 100 µM (inactive) in experiment [9]; 64.6 µM (inactive) in experiment [10]; > 100 µM (inactive) in experiment [11]; > 100 µM (inactive) in [12]. Moreover, the GI50 in experiment [13], in [14], in experiment [15], in [16], in experiment [17] and in experiment [18] was > 100 µM (inactive) in each case. The GI50 in experiment [19] was > 100 µM (inactive).
On to `O=C1c2c(Br)sc(Br)c2[C@@H](NC(=O)C(F)(F)F)C1Br` (stereo partly drawn), for which the GI50 is 3.57 µM (inactive) in [1]; 2.34 µM (inactive) in experiment [2]; 2.68 µM (inactive) in experiment [3]; 2.3 µM (inactive) in experiment [4]; 2.2 µM (inactive) in experiment [5]; 3.32 µM (inactive) in experiment [6]. Also, the GI50 in experiment [7] was 3.66 µM (inactive); in experiment [8] it was 15.3 µM (inactive); in [9] it was 16.8 µM (inactive); in experiment [10] it was 1.51 µM (inactive); in [11] it was 4.11 µM (inactive); in experiment [12], 2.13 µM (inactive). The GI50 in experiment [13] was 2.79 µM (inactive); in experiment [14], 0.631 µM (active); in experiment [15] it was 5.66 µM (inactive); in [16], 18.7 µM (inactive); in [17], 2.8 µM (inactive); in experiment [18], 2.31 µM (inactive). Moreover, the GI50 in experiment [19] is 12.9 µM (inactive).
`[O-][n+]1ccccc1Sc1nc(Sc2cccc[n+]2[O-])nc(Sc2cccc[n+]2[O-])n1`: the GI50 in [1] is 2.34 µM (inactive); in experiment [2] it was 1.26 µM (inactive); in experiment [3], 0.569 µM (active); in experiment [4], 1.28 µM (inactive); in experiment [5] it was 0.189 µM (active); in [6] it was 1.58 µM (inactive). Also, the GI50 is 1.22 µM (inactive) in [7]; 2.82 µM (inactive) in experiment [8]; 3.14 µM (inactive) in experiment [9]; 2.4 µM (inactive) in experiment [10]; 2.03 µM (inactive) in experiment [11]; 1.07 µM (active) in experiment [12]. Also, the GI50 was 1.38 µM (inactive) in [13]; 0.1 µM (active) in [14]; 1.88 µM (inactive) in experiment [15]; 7.24 µM (inactive) in experiment [16]; 1.31 µM (inactive) in [17]; 1.59 µM (inactive) in [18]. In experiment [19], the GI50 was 2.98 µM (inactive).
